This passage reports healing and wound glucose level results from patent US12383607B2, “Topical composition for improved healing of open wounds” (Eleos Pharmaceuticals, Inc., priority 2017, dated 2025).

In this experiment the test system is wound. The experiment is described as follows: Patient wound healing study. To be noted: topical application directly in the wound. It is filed as in vivo, human. An excerpt: Thus, for example, a skin ailment could be treated using a disclosed composition as follows: • 1. Clean the skin ailment with soap and warm water, with either a wash cloth or gauze sponge. Cleaning may be lightly abrasive as the subject tolerates. Alternatively, the skin ailment can be cleaned with gauze, moistened with saline and hibiclens. Again, the cleaning may be lightly abrasive as the subject tolerates. • 2. Rinse the ailment thoroughly with warm water or saline so no soap residue remains. • 3. Apply the topical composition to a Q-Tip applicator and lightly cover the surface of the ailment with the composition. […] If eschar is present, apply the composition to the edge of the eschar and beneath the edge of the eschar. The composition need not be applied to the top of the eschar. • 4. Cover the ailment with dry gauze. Wrap and secure the gauze with Kling, Kerlex roll, or Ace wrap. The wrap should be loosely applied so as to secure the dressing but to not apply pressure to the ailment site. • 5. If there is surrounding dermatitis (redness), allow the area to dry (no wrap need be applied).
3. Summary of Patient Wound Healing Study
A summary of the results of a patient wound healing study are illustrated in Table 2 below. The average blood sugar (BS) change by age and class are shown in FIG. 2A and FIG. 2B, respectively. […]

Regarding insulin, the healing entry is “significantly enhances healing” and the wound glucose level entry is given as “decreases the wound glucose level”.
